Results from ChEMBL document CHEMBL3352805, “Structure and Stereochemical Determination of Hypogeamicins from a Cave-Derived Actinomycete” (J Nat Prod, 2014).
pIC50: −log10 of the molar value. Converted amounts (≈) assume the structure as drawn. The source made the active and inactive calls. The calls are words filed in the database; no cut-off is given here.

Key:
Bacillus subtilis = assay: Antibacterial activity against Bacillus subtilis; type: functional
TCT1 = assay: (§1) Cytotoxicity against human TCT1 cells after 48 hrs by calcein-AM dye based fluorescence assay; type: functional, cell-based
[1] = as §1; type: functional, cell-based; details: TCT1, 48 h

With `CCC[C@H]1O[C@H](CC(N)=O)C[C@]2(O)C(=O)c3cc(OC)cc(O)c3C(=O)[C@@]12O` the MIC (Bacillus subtilis) was 28 µg/mL (≈ 71.2 µM) and the Activity (TCT1) was “inactive”.

With GENTAMICIN the MIC (Bacillus subtilis) was 0.125 µg/mL.

With `COC(=O)CC1CC2(SC34CC(CCO)OC(C)C3(O)C(=O)c3c(O)cccc3C4=O)C(=O)c3cccc(O)c3C(=O)C2(O)C(C)O1` (stereo not drawn) the pIC50 [1] was 5.19.

For `CCC[C@H]1O[C@H](CC(N)=O)C[C@]23O[C@]12C(=O)c1c(O)cc(OC)cc1C3=O`, the MIC (Bacillus subtilis) was 7 µg/mL (≈ 18.6 µM) and the Activity (TCT1) was “inactive”.

For `CCC[C@H]1O[C@H](C(O)C(N)=O)C[C@]23O[C@]12C(=O)c1c(O)cc(OC)cc1C3=O` (stereo partly drawn), the MIC (Bacillus subtilis) was 7 µg/mL (≈ 17.9 µM) and the Activity (TCT1) was “inactive”.

With `CCC[C@H]1O[C@H](CC(N)=O)C[C@]2(S[C@]34C[C@@H](CC(N)=O)O[C@H](CCC)[C@]3(O)C(=O)c3c(O)cc(OC)cc3C4=O)C(=O)c3cc(OC)cc(O)c3C(=O)[C@@]12O` the MIC (Bacillus subtilis) was “inactive” and the Cytotoxicity (TCT1) was “Active”.

Compound `CC(=O)O[C@H]1C(=O)[C@@]2(C)[C@H]([C@H](OC(=O)c3ccccc3)[C@]3(O)C[C@H](OC(=O)[C@H](O)[C@@H](NC(=O)c4ccccc4)c4ccccc4)C(C)=C1C3(C)C)[C@]1(OC(C)=O)CO[C@@H]1C[C@@H]2O` [PACLITAXEL] has a pIC50 [1] of 8.60.

`CC[C@H]1OC(=O)[C@H](C)[C@@H](O[C@H]2C[C@@](C)(OC)[C@@H](O)[C@H](C)O2)[C@H](C)[C@@H](O[C@@H]2O[C@H](C)C[C@H](N(C)C)[C@H]2O)[C@](C)(O)C[C@@H](C)C(=O)[C@H](C)[C@@H](O)[C@]1(C)O` [ERYTHROMYCIN] showed an MIC (Bacillus subtilis) of 0.125 µg/mL (≈ 0.17 µM).

For `COC(=O)CC1CC2(SC34CC(CC(=O)OC)OC(C)C3(O)C(=O)c3c(O)cccc3C4=O)C(=O)c3cccc(O)c3C(=O)C2(O)C(C)O1` (stereo not drawn), the pIC50 [1] was 5.19.
